Like-named read-outs stand apart in the source and are kept apart here.
How the values were obtained:
[1] = target: Full length EN PA (influenza PA endonuclease) (Influenza A virus, UniProt P15659); experiment: EN PA FRET inhibition assay; assay type: biochemical; conditions: FRET probe, mean of a minimum of two independent experiments, read-out: Potency (IC50 class, Table 3)
[2] = tested on: Influenza strain A549_A/WSN/33 (H1N1); experiment: Influenza antiviral assay (neuraminidase fluorescence readout); assay type: cell-based, Influenza virus; conditions: read-out: % Inhibition (EC50 class, Table 2)
[3] = tested on: influenza strains B/Malaysia/2506/2004 or B/Victoria/504/2000; experiment: Influenza B assay (fluorescence-based influenza neuraminidase assay); assay type: cell-based; conditions: Influenza B virus, A549, 20 h; read-out: Potency (EC50)
[4] = tested on: Influenza strain A/Port Chalmers/1/73 (H3N2); experiment: Combination studies (checker-board, MacSynergy II); assay type: cell-based, Influenza virus; conditions: MDCK cells, three days
[5] = Compound 2 = 21-A (PA Inhibitor)
[6] = Compound 2 = Amantadine (M2 Channel-Inhibitor)
[7] = Compound 2 = Favipiravir (T-705) (Polymerase Inhibitor)
[8] = Compound 2 = Oseltamivir (Neuraminidase-Inhibitor)
[9] = Compound 2 = Peramivir (Neuraminidase-Inhibitor)
[10] = Compound 2 = Ribavirin (Polymerase Inhibitor)
[11] = Compound 2 = Rimantadine (M2 Channel-Inhibitor)
[12] = Compound 2 = Zanamivir (Neuraminidase-Inhibitor)
[13] = Compound 2 = drawing 296 (Polymerase Inhibitor)

For CC(C)N1C[C@H](C(c2ccccc2)c2ccccc2)n2ncc(=O)c(O)c2C1=O [Compound 6-A], the IC50 [1] was less than 250 nM, the EC50 ([2]; Influenza A virus) was less than 20 µM and the EC50 [3] was less than 20 µM. For the same compound, the “Observed Result” value [4, 5] was “additive (volumes in the −25-25 range indicate additive behavior)”, the “Synergy Volume” value [4, 5] was 4.1 μM^2% and the “Observed Result” value [4, 6] was “additive (volumes in the −25-25 range indicate additive behavior)”. For the same compound, the “Synergy Volume” value [4, 6] was 22.5 μM^2%, the “Synergy Volume” value ([4]; Compound 2 = Consensus Interferon alpha (Immuno-modulator)) was 70 μM^2% and the “Synergy Volume” value [4, 7] was 185 μM^2%. For the same compound, the “Synergy Volume” value ([4]; Compound 2 = Laninamivir (Neuraminidase-Inhibitor)) was 276 μM^2%, the “Synergy Volume” value [4, 8] was 233 μM^2% and the “Synergy Volume” value [4, 9] was 308 μM^2%. For the same compound, the “Synergy Volume” value [4, 10] was 109 μM^2%, the “Observed Result” value [4, 11] was “additive (volumes in the −25-25 range indicate additive behavior)” and the “Synergy Volume” value [4, 11] was 4.6 μM^2%. The “Synergy Volume” value [4, 12] was 217 μM^2%, the “Observed Result” value [4, 13] was “strongly synergistic” and the “Synergy Volume” value [4, 13] was 440 μM^2%.

Work on CN1C[C@H](C2c3ccccc3CCc3ccccc32)n2ncc(=O)c(O)c2C1=O [Compound 7-A] yielded an IC50 [1] of less than 250 nM, an EC50 ([2]; Influenza A virus) of less than 20 µM and an EC50 [3] of less than 20 µM.

Compound CCN1C[C@H](C(c2cccc(F)c2)c2cccc(F)c2)n2ncc(=O)c(O)c2C1=O [Compound 21-A] has an IC50 [1] of less than 250 nM, an EC50 ([2]; Influenza A virus) of less than 20 µM and an EC50 [3] of less than 20 µM.

For CCN1C[C@H](C(c2cccc(Cl)c2)c2cccc(Cl)c2)n2ncc(=O)c(O)c2C1=O [Compound 39-A], the IC50 [1] was less than 250 nM, the EC50 ([2]; Influenza A virus) was less than 20 µM and the EC50 [3] was less than 20 µM.

CC(C)N1C[C@H](C(c2cccc(F)c2)c2cccc(F)c2)n2ncc(=O)c(O)c2C1=O [Compound 41-A] was tested, and the IC50 [1] was less than 250 nM, the EC50 ([2]; Influenza A virus) was less than 20 µM and the EC50 [3] was less than 20 µM.

Work on CC(C)N1C[C@H](C(c2cccc(Cl)c2)c2cccc(Cl)c2)n2ncc(=O)c(O)c2C1=O [Compound 68-A] yielded an IC50 [1] of less than 250 nM, an EC50 ([2]; Influenza A virus) of less than 20 µM and an EC50 [3] of less than 20 µM.

With COCCN1C[C@H](C(c2cccc(F)c2)c2cccc(F)c2)n2ncc(=O)c(O)c2C1=O [Compound 76-A] the IC50 [1] was less than 250 nM, the EC50 ([2]; Influenza A virus) was less than 20 µM and the EC50 [3] was less than 20 µM.

For CC(C)C(=O)Oc1c2n(ncc1=O)[C@@H](C1c3cccc(F)c3CCc3c(F)cccc31)CN(C(C)C)C2=O [Compound 114-A], the IC50 [1] was less than 250 nM, the EC50 ([2]; Influenza A virus) was less than 20 µM and the “Synergy Volume” value [4, 6] was 86 μM^2%. For the same compound, the “Synergy Volume” value [4, 7] was 132 μM^2%, the “Synergy Volume” value [4, 8] was 205 μM^2% and the “Synergy Volume” value [4, 9] was 100 μM^2%. For the same compound, the “Synergy Volume” value [4, 10] was 55 μM^2%, the “Observed Result” value [4, 11] was “synergistic (volumes in the 25-100 range indicate synergistic behavior)” and the “Synergy Volume” value [4, 11] was 45 μM^2%. The “Synergy Volume” value [4, 12] was 127 μM^2%.

Work on CC(C)CC(=O)Oc1c2n(ncc1=O)[C@@H](C(c1ccccc1)c1ccccc1)CN(C(C)C)C2=O [Compound 118] yielded an IC50 [1] of 250 to 1000 nM and an EC50 ([2]; Influenza A virus) of less than 20 µM.

CC(C)N1C[C@H](C(c2ccccc2)c2ccccc2)n2ncc(=O)c(OC(=O)C3CCCC3)c2C1=O [Compound 119] gave an IC50 [1] of less than 250 nM and an EC50 ([2]; Influenza A virus) of less than 20 µM.

CC(C)N1C[C@H](C(c2ccccc2)c2ccccc2)n2ncc(=O)c(OC(=O)C3CCOCC3)c2C1=O [Compound 120] showed an IC50 [1] of less than 250 nM and an EC50 ([2]; Influenza A virus) of less than 20 µM.

For CC(C)N1CC(C2c3ccccc3CSc3ccccc32)n2ncc(=O)c(O)c2C1=O (stereo not drawn) [Compound 121], the IC50 [1] was less than 250 nM and the EC50 ([2]; Influenza A virus) was less than 20 µM.

CCC#Cc1ccn([C@H](c2ccccc2)[C@H]2CN(C)C(=O)c3c(O)c(=O)cnn32)n1 [Compound 122] showed an IC50 [1] of less than 250 nM and an EC50 ([2]; Influenza A virus) of less than 20 µM.

CCC#Cc1ccn([C@@H](c2ccccc2)[C@H]2CN(C)C(=O)c3c(O)c(=O)cnn32)n1 [Compound 123] gave an IC50 [1] of less than 250 nM and an EC50 ([2]; Influenza A virus) of less than 20 µM.

CCC#Cc1ccn([C@H](c2ccccc2)[C@@H]2CN(C)C(=O)c3c(O)c(=O)cnn32)n1 [Compound 124] was tested, and the IC50 [1] was 250 to 1000 nM and the EC50 ([2]; Influenza A virus) was less than 20 µM.

CCC#Cc1ccn([C@@H](c2ccccc2)[C@@H]2CN(C)C(=O)c3c(O)c(=O)cnn32)n1 [Compound 125] showed an IC50 [1] of less than 250 nM and an EC50 ([2]; Influenza A virus) of less than 20 µM.

Compound CCC#Cc1ccn(C(c2ccccc2)C2CN(C(C)C)C(=O)c3c(O)c(=O)cnn32)n1 (stereo not drawn) [Compound 126] has an IC50 [1] of less than 250 nM and an EC50 ([2]; Influenza A virus) of less than 20 µM.

In the case of CC(C)N1C[C@H]([C@H](c2ccccc2)n2ccc(C#N)n2)n2ncc(=O)c(O)c2C1=O [Compound 127-A], the IC50 [1] is reported as less than 250 nM and the EC50 ([2]; Influenza A virus) is reported as less than 20 µM.

CC(C)N1C[C@H]([C@@H](c2ccccc2)n2ccc(C#N)n2)n2ncc(=O)c(O)c2C1=O [Compound 127-B] was tested, and the IC50 [1] was less than 250 nM and the EC50 ([2]; Influenza A virus) was less than 20 µM.

With CC(C)N1C[C@H]([C@@H](c2ccccc2)n2ccc(C#N)n2)n2ncc(=O)c(O)c2C1=O [Compound 127-C] the IC50 [1] was 250 to 1000 nM and the EC50 [2] was less than 20 µM.

CC(C)N1C[C@@H]([C@@H](c2ccccc2)n2ccc(C#N)n2)n2ncc(=O)c(O)c2C1=O [Compound 127-D] was tested, and the IC50 [1] was 250 to 1000 nM and the EC50 ([2]; Influenza A virus) was less than 20 µM.

Work on CC(C)N1CC(C(c2ccccc2)n2ccc(C#N)n2)n2ncc(=O)c(O)c2C1=O (stereo not drawn) [Compound 127] yielded an IC50 [1] of less than 250 nM and an EC50 ([2]; Influenza A virus) of less than 20 µM.

CN1C[C@H]([C@@H](c2ccccc2)c2ccccn2)n2ncc(=O)c(O)c2C1=O [Compound 128] gave an IC50 [1] of less than 250 nM and an EC50 ([2]; Influenza A virus) of less than 20 µM.

[2H]c1c([2H])c([2H])c(C(c2c([2H])c([2H])c([2H])c([2H])c2[2H])[C@H]2CN(C(C)C)C(=O)c3c(O)c(=O)cnn32)c([2H])c1[2H] [Compound 129] showed an IC50 [1] of less than 250 nM and an EC50 ([2]; Influenza A virus) of less than 20 µM.

In the case of CN1C[C@@H]([C@@H](c2ccccc2)c2ccccn2)n2ncc(=O)c(O)c2C1=O [Compound 131], the IC50 [1] is reported as less than 250 nM and the EC50 ([2]; Influenza A virus) is reported as less than 20 µM.

CC(C)N1C[C@H]([C@@H](c2ccccc2)c2ccccn2)n2ncc(=O)c(O)c2C1=O [Compound 132] gave an IC50 [1] of less than 250 nM and an EC50 ([2]; Influenza A virus) of less than 20 µM.

Compound CC(C)OC(=O)Oc1c2n(ncc1=O)[C@@H](C(c1ccccc1)c1ccccc1)CN(C(C)C)C2=O [Compound 133] has an IC50 [1] of no less than 1000 nM and an EC50 ([2]; Influenza A virus) of less than 20 µM.

Work on CC(C)COC(=O)Oc1c2n(ncc1=O)[C@@H](C(c1ccccc1)c1ccccc1)CN(C(C)C)C2=O [Compound 134] yielded an IC50 [1] of no less than 1000 nM and an EC50 ([2]; Influenza A virus) of less than 20 µM.

With CC(C)N1CC(C(c2ccccc2)c2cccnc2)n2ncc(=O)c(O)c2C1=O (stereo not drawn) [Compound 135] the IC50 [1] was less than 250 nM and the EC50 ([2]; Influenza A virus) was less than 20 µM.

CC(C)N1C[C@@H]([C@@H](c2ccccc2)c2ccccn2)n2ncc(=O)c(O)c2C1=O [Compound 138] gave an IC50 [1] of less than 250 nM and an EC50 ([2]; Influenza A virus) of less than 20 µM.
